Tests used:
[1] = test system: SW403 tumor (Human colorectal cancer, 35G>T); assay: SW403 tumor growth in vivo, combination with Capecitabine; parameters: species or system mice; details: Capecitabine 200 μg once a week
Description: It was also evaluated whether targeting mutant KRAS in combination with a chemotherapeutic agent can suppress tumor growth in vivo when administered intravenously using ADGN-100-Hy3 nanoparticles. Female nude mice 6-weeks of age were injected with either Human pancreatic carcinoma cell (Panc1-Luc) containing the 35G>A mutation, or Human colorectal cancer cells (SW403) containing 35G>T KRAS mutation (20×10^6 cells in 200 μl PBS). The animals were kept under pathogen-free conditions and fed and watered ad libitum, in cages of 2 to 4 animals (in compliance with recommended area surface/animal), in a dedicated room with a 12 h/12 h light/dark cycle at a constant temperature of 22° C. A period of 2 weeks was allowed for tumor development before the beginning of the experiments […]
Animal were injected ADGN/mRNA complex on day 1 and day 7. […] PANC-1 tumor size was evaluated by bioluminescence imaging. […] Semi-quantitative data of luciferase-positive tumor cell signals were obtained using the manufacturer's software (Living Image; PerkinElmer). Results were expressed as photons/second (photons/s). […] Results were then expressed as values relative to day 0. SW403 tumor size was evaluated every 7 days using caliper. Results were then expressed as values relative to day 0. […]

[2] = test system: wild type KRAS; assay: Indel frequencies at the endogenous target sequences (T7E1 / deep sequencing) after ADGN/Cas9 mRNA/gRNA transfection; format: cell-based, human; details: HT29 cells
Description: Complex formation with mRNA:gRNA: ADGN peptide/mRNA/gRNA particles were prepared at a 20:1:1 molar ratio. ADGN/Cas9mRNA/sgRNA complexes were prepared at a 20/1/1 molar ratio with 0.5 μg mRNA: 1.5 μg sgRNA and 5% Glucose or DMEM (example for 96 well plates). […] Premixed Cas9 mRNA/gRNA were prepared in sterile water at room temperature in a glass vial (1-4 ml). ADGN-peptide solution was added dropwise (1 drop/sec) under magnetic agitation at 400 rpm to obtain a 1:2 ratio, and incubated for 30 min at room temperature or 37° C. Just before transfection, 150 μl Glucose or DMEM was added and the solution was mixed under magnetic agitation at 400 rpm for 1 minute. Then the solution was incubated for 5 min at 37° C. Then the complexes was ready for cell transfection or IV administration. Prior to IV administration, complexes were diluted in sucrose 5% solution.
(§1) Transfection protocol. The following protocols are reported for 24/48/96 well plate format transfection. Cells should be trypsinized and seeded a day prior transfection Cells were cultured in Dulbecco's Modified Eagle's Medium (DMEM), supplemented with 2 mM glutamine, 1% antibiotics (streptomycin 10,000 μg/mL, penicillin, 10,000 IU/mL) and 10% (w/v) foetal calf serum (FCS), at 37° C. in a humidified atmosphere containing 5% CO2. 96 well plates seeded with 50,000 cells, the day prior transfection, grown to 60-80% confluence and set up to be at around 70% confluence at the day of transfection. Before transfection, cells are washed twice with DMEM (without FBS and pen/strep) (100 μl/well). Cells were then overlaid with 25 μl of complex solution, mixed gently and incubated for 10 min at 37° C.+5% CO2. 50 μl of fresh DMEM (without FBS and Antibiotics) was added and cells were incubated for 2 h at 37° C.+5% CO2 (time of exposure can be adjusted based on sensitivity of the cells). 250 μL of DMEM (containing 10% FCS and 1% antibiotics) were then added without removing the overlay of ADGN peptide/mRNA complexes. Cells were returned to the incubator (37° C., 5% CO2) and analyzed 48 hours to 72 hours post transfection.
(§2) Nine different gRNAs targeting KRAS 35G>T mutant G12V (gRNA35T1, gRNA35T2, gRNA35T3, gRNA35T4, gRNA35T5, gRNA35T6, gRNA35T7, gRNA35T8 and gRNA35T9 (see FIG. 18)) were evaluated on SW403 and SW480 cancer cells harboring G12V KRAS mutation. Cas9 mRNA (0.15 μg) and gRNA (0.2 μg) were associated with ADGN-peptides as reported in experimental procedure. SW403, SW480 and HT-29 cells were cultured in 48 well plate format and treated with free mRNACas9-gRNA, or ADGN-100/mRNACas9:gRNA complex. Indel frequencies at the endogenous target sequences was evaluated 72 hours after transfection by either T7E1 method and by deep sequencing. Cell proliferation was analyzed over a period of 5 days using CellTiter Glow kits on GlowMax (Promega).
Nine different gRNAs targeting KRAS 35G>A mutant G12D (gRNA35A1, gRNA35A2, gRNA35A3, gRNA35A4, gRNA35A5, gRNA35A6; gRNA35A7, gRNA35A8, gRNA35A9) were evaluated on LS513, Panc1, PK-45H, and PK1 cancer cells harboring G12D KRAS mutation. Cas9 mRNA (0.1 μg) and gRNA (0.2 μg) were associated with ADGN-peptide at molar ratio 20/1 (peptide/nucleic acid). LS513, Panc1, PK-45H, PK1, HS-68 and HT-29 cells were cultured in 48 well plate format and treated with free mRNACas9-gRNA, or ADGN/mRNACas9:gRNA complex. Indel frequencies at the endogenous target sequences was evaluated 72 hours after transfection by either T7E1 method or deep sequencing. Cell proliferation was analyzed over a period of 5 days using CellTiter Glow kits on GlowMax (Promega).

[3] = test system: KRAS 35G>T mutant G12V; assay: as above; format: cell-based, human; details: deep sequencing, 72 hours after transfection, Cas9 mRNA 0.15 μg, gRNA 0.2 μg, ADGN-100
[4] = test system: HT-29 cells; assay: Cell proliferation over 5 days (CellTiter Glow); format: cell-based, human; details: KRAS WT cells
Description: as §1, §2

Compound	reduction of SW403 tumor growth [1] [%]	disruption of WT KRAS [2]	indel frequencies ([3]; SW403 cells (heterozygous 35G>T)) [%]	indel frequencies ([3]; SW480 cells (homozygous 35G>T)) [%]	HT-29 proliferation [4]
CCCCCOC(=O)Nc1nc(=O)n([C@@H]2O[C@H](C)[C@@H](O)[C@H]2O)cc1F [Capecitabine]	38	–	–	–	–
AGC TGT TGG CGT AGG CAA (guide AGCTGTTGGCGTAGGCAA; chemistry not given here) [gRNA35T4, sgRNA target KRAS G12V mutation (c.35G>T); PAM GAG]	–	also induced disruption of WT KRAS in HT29 cells	22	41	altered also HT-29 proliferation

Source: patent US20230167437A1, “COMPOSITIONS FOR TREATING CANCER WITH KRAS MUTATIONS AND USES THEREOF” (Aadigen, LLC, priority 2020, published 2023)
